This note sets out measurements from ChEMBL document CHEMBL1275404, “Disulfide cyclized tripeptide analogues of angiotensin IV as potent and selective inhibitors of insulin-regulated aminopeptidase (IRAP)” (J Med Chem, 2010).

The test deals with Aminopeptidase N (Homo sapiens, UniProt P15144). In words: Inhibition of catalytic activity of human recombinant aminopeptidase N expressed in HEK293 cells. Type of test: cell-based.
Sequence of Aminopeptidase N (P15144 whole entry): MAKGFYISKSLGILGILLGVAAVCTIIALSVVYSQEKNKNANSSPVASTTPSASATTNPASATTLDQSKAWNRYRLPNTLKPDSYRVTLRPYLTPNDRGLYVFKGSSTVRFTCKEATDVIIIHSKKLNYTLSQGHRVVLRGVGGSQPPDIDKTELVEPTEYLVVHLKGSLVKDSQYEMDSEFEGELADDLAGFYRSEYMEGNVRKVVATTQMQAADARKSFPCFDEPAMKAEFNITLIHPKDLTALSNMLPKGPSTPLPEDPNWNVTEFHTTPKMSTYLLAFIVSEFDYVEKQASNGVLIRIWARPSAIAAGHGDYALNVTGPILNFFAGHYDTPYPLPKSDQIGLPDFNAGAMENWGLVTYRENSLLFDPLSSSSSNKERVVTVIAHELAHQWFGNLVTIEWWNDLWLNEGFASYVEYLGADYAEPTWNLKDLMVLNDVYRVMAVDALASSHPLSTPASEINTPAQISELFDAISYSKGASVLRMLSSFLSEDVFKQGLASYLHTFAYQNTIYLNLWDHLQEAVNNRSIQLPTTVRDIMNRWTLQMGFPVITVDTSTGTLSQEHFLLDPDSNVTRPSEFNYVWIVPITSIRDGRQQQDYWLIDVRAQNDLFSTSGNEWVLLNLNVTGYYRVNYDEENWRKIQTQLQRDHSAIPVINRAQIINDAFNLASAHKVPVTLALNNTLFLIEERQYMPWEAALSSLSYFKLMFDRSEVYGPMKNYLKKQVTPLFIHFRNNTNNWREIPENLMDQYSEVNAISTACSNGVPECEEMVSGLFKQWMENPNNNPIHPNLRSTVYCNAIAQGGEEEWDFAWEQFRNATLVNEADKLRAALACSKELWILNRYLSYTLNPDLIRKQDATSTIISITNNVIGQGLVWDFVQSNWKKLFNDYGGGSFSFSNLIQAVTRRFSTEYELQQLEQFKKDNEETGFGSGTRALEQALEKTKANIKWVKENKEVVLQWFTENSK

On to `N[C@H]1CCSSC[C@@H](C(=O)NCc2ccccc2CC(=O)O)NC(=O)C[C@H](Cc2ccc(O)cc2)NC1=O`, for which the Ki turned out to be 7.25 µM.

As for `N[C@H]1CCSSC[C@H](C(=O)NCc2ccccc2CC(=O)O)NC(=O)C[C@H](Cc2ccc(O)cc2)NC1=O`, the Ki came to 10.8 µM.
